Experimental data taken from patent EP4667483A1, “HUMAN TRANSFERRIN RECEPTOR-BINDING PEPTIDE” (JCR Pharmaceuticals Co., Ltd., priority 2023, dated 2024).
Like-named read-outs stand apart in the source and are kept apart here. Numbered stars: 1 amine (or outer) side, 2 acyl side, 3 side chain; on linkers, the order of the positions; unused ones are H or OH. Bridge positions count the residues as written; N and C are the ends. Square brackets hold non-standard residues; d marks the D form. Side chains are listed from the residue outwards. Peptide text beside a SMILES is read from it. * marks the point of attachment. CH2CO(D-glucamine) = O=C(C*)NC[C@H](O)[C@@H](O)[C@H](O)[C@H](O)CO; NH(1-deoxy-D-glucityl) = OC[C@@H](O)[C@@H](O)[C@H](O)[C@@H](O)CN*; Trp(1-CH2COOH) = N[C@@H](Cc1cn(CC(=O)O)c2ccccc12)C(=O)O; CH2CON(CH2CH2)2NCH2COOH = O=C(O)CN1CCN(C(=O)C*)CC1; NMePhe(4-COOH) = CN[C@@H](Cc1ccc(C(=O)O)cc1)C(=O)O; X1 = O=C([C@H](Cc1cccc(C(=O)[*:3])c1)N[*:1])[*:2]; Nle(6-morpholino) = N[C@@H](CCCCN1CCOCC1)C(=O)O; Phe(3-COOH) = N[C@@H](Cc1cccc(C(=O)O)c1)C(=O)O; Trp(7-aza) = N[C@@H](Cc1c[nH]c2ncccc12)C(=O)O; NH(CH2CH2O)8Me = COCCOCCOCCOCCOCCOCCOCCOCCN*; NMePhe(3-Cl) = CN[C@@H](Cc1cccc(Cl)c1)C(=O)O; Piperazinyl(4-CH2COOH) = O=C(O)CN1CCN(*)CC1; 3Pal(6-NH2) = Nc1ccc(C[C@H](N)C(=O)O)cn1; NMeW = CN[C@@H](Cc1c[nH]c2ccccc12)C(=O)O; NMe3Pal = CN[C@@H](Cc1cccnc1)C(=O)O; NMeY = CN[C@@H](Cc1ccc(O)cc1)C(=O)O; Nva(3-Et) = CCC(CC)[C@H](N)C(=O)O; NMeF = CN[C@@H](Cc1ccccc1)C(=O)O; 4Pal = N[C@@H](Cc1ccncc1)C(=O)O; PEG4 = NCCOCCOCCOCCOCCC(=O)O; Carboxymethyl = O=C(O)C*; CO = O=C([*:1])[*:2]

Biological target: human transferrin receptor (hTfR) (Homo sapiens, UniProt P02786)
Assay: SPR measurement under pH 7.4 conditions (Biacore T200, CM3 chip, hTfR captured by His Tag antibody)
Format: binding
Procedure: Molecular interactions between the synthesized peptides and the transferrin receptor (hTfR) were evaluated by surface plasmon resonance (SPR) using the following method. The specific assay procedure is described below.
An CM3 sensor chip (Cytiva) was inserted into BiacoreT200 (Cytiva), then a priming operation was performed three times by using a running buffer: HBS-P+, pH7.4 (Cytiva), and an equilibrium state was created at a flow rate of […]. Ligand immobilization was performed at a flow rate of 10 µL/min. After mixing 50 µL each of 60 mM EDC solution (Cytiva) and 650 mM NHS solution (Cytiva), the mixture was reacted at a flow rate of 10 µL/min for 420 seconds. 150 µL of […] THE His Tag Antibody, mAb, Mouse (GenScript) was prepared by diluting with 10 mM acetic acid solution (pH 5.0), and reacted at a flow rate of 10 µL/ min for 420 seconds. Then, THE His Tag Antibody, mAb, Mouse (GenScript) was immobilized as a capture molecule on the CM3 sensor chip. After immobilization, capping was performed by reacting with 1.0 M ethanolamine solution (Cytiva) at a flow rate of 10 µL/min for 420 seconds. 300 nM hTfR was captured at a flow rate of 10 µL/min, a peptide solution prepared at 10 mM in DMSO was diluted with running buffer to achieve a final concentration of 10 µM, and peptide solutions at 250 nM, 125 nM, 62.5 nM, 25 nM, and 12.5 nM were prepared. . The peptide samples were reacted at a flow late of 30 µL/min for 120 seconds, followed by dissociation for 600 seconds. The kinetics of the peptide against hTfR was obtained by SPR measurement for the above samples.
The kinetic evaluation model was single-cycle kinetics, and curve fitting was performed using Biacore T200 Evaluation Software Version 3.0 (Cytiva). The binding of the peptide to hTfR was evaluated by performing curve fitting on the obtained sensorgram by the least squares method and obtaining the kon value, the koff value, and the KD value.

[1] = SPR, pH 7.4, peptide with the linker named in the table, read-out: hTfR SPR pH7.4 KD
[2] = SPR, pH 7.4, Table 2-1-2, read-out: hTfR SPR pH7.4 KD(n M)

Chain of human transferrin receptor (hTfR) (P02786 whole entry): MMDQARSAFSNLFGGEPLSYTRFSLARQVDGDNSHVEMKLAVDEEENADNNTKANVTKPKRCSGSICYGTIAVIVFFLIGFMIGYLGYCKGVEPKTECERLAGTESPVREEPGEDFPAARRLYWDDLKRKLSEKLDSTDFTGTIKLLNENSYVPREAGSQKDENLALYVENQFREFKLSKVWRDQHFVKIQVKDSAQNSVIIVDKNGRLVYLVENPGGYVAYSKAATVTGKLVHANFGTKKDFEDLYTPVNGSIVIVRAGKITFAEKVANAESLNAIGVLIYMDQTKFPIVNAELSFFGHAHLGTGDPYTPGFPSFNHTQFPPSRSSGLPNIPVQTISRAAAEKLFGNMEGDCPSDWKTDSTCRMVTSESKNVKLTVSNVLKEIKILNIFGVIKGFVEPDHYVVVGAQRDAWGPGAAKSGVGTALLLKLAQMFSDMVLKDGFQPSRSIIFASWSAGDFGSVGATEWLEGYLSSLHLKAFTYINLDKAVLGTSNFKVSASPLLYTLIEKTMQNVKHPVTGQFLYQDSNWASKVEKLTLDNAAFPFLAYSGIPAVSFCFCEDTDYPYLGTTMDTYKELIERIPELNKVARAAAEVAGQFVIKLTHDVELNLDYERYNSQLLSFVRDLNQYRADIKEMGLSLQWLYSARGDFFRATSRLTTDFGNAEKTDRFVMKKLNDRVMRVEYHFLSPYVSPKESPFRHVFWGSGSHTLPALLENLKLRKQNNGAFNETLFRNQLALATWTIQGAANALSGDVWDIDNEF

Kd [2]	SMILES	further results
44.3 nM	CC[C@H](C)[C@@H]1NC(=O)[C@H](Cc2ccc(OCC(=O)N3CCN(CC(=O)O)CC3)cc2)NC(=O)[C@H](Cc2ccc(N)nc2)NC(=O)[C@H](CC(N)=O)NC(=O)[C@H](Cc2c[nH]c3ncccc23)NC(=O)[C@H](C(C)C)NC(=O)[C@H](Cc2cccc(Cl)c2)N(C)C(=O)[C@H](C(C)C)NC(=O)[C@H](C)NC(=O)CSC[C@@H](C(=O)NCCOCCOCCOCCOCCC(N)=O)NC(=O)[C@H](Cc2ccc(O)cc2)N(C)C(=O)[C@H](Cc2ccncc2)NC(=O)[C@H](CCCNC(=N)N)NC(=O)[C@H](CCC(=O)NCCOCCOCCOCCOCCOCCOCCOCCOC)NC(=O)[C@H]([C@@H](C)CC)NC1=O [compound 153]	–
32.6 nM	CC[C@H](C)[C@@H]1NC(=O)[C@H](Cc2ccc(OCC(=O)N3CCN(CC(=O)O)CC3)cc2)NC(=O)[C@H](Cc2ccc(N)nc2)NC(=O)[C@H](CC(N)=O)NC(=O)[C@H](Cc2c[nH]c3ncccc23)NC(=O)[C@H](C(C)C)NC(=O)[C@H](Cc2cccc(Cl)c2)N(C)C(=O)[C@H](C(C)C)NC(=O)[C@H](C)NC(=O)CSC[C@@H](C(=O)NCCOCCOCCOCCOCCC(N)=O)NC(=O)[C@H](Cc2ccc(O)cc2)N(C)C(=O)[C@H](Cc2ccncc2)NC(=O)[C@H](CCCCN2CCOCC2)NC(=O)[C@H](CCC(=O)NCCOCCOCCOCCOCCOCCOCCOCCOC)NC(=O)[C@H]([C@@H](C)CC)NC1=O [compound 154] ({CH2CO}-AV[NMePhe(3-Cl)]V[Trp(7-aza)]N[3Pal(6-NH2)]Y(CH2CON(CH2CH2)2NCH2COOH)IIE(NH(CH2CH2O)8Me)[Nle(6-morpholino)][4Pal][NMeY]C[PEG4]-NH2; thioether N-15)	–
16 nM	CC[C@H](C)[C@@H]1NC(=O)[C@H](Cc2ccc(OCC(=O)N3CCN(CC(=O)O)CC3)cc2)NC(=O)[C@H](Cc2ccc(N)nc2)NC(=O)[C@H](CC(N)=O)NC(=O)[C@H](Cc2c[nH]c3ncccc23)NC(=O)[C@H](C(C)C)NC(=O)[C@H](Cc2cccc(Cl)c2)N(C)C(=O)[C@H](C(C)C)NC(=O)[C@H](C)NC(=O)CSC[C@@H](C(=O)NCCOCCOCCOCCOCCC(N)=O)NC(=O)[C@H](Cc2ccc(O)cc2)N(C)C(=O)[C@H](Cc2ccncc2)NC(=O)[C@H](CCCNC(=N)N)NC(=O)[C@H](CCCCNC(=O)N2CCN(CC(=O)O)CC2)NC(=O)[C@H]([C@@H](C)CC)NC1=O [compound 156] ({CH2CO}-AV[NMePhe(3-Cl)]V[Trp(7-aza)]N[3Pal(6-NH2)]Y(CH2CON(CH2CH2)2NCH2COOH)IIK([CO-Piperazinyl(4-CH2COOH)])R[4Pal][NMeY]C[PEG4]-NH2; thioether N-15)	–

Second part, the compound before the results:

SMILES	Kd [2]	further results
CC[C@H](C)[C@@H]1NC(=O)[C@H](Cc2ccc(OCC(=O)NC[C@H](O)[C@@H](O)[C@H](O)[C@H](O)CO)cc2)NC(=O)[C@H](Cc2ccc(N)nc2)NC(=O)[C@H](CC(N)=O)NC(=O)[C@H](Cc2c[nH]c3ncccc23)NC(=O)[C@H](C(C)C)NC(=O)[C@H](Cc2cccc(Cl)c2)N(C)C(=O)[C@H](C(C)C)NC(=O)[C@H](C)NC(=O)CSC[C@@H](C(=O)NCCOCCOCCOCCOCCC(N)=O)NC(=O)[C@H](Cc2ccc(O)cc2)N(C)C(=O)[C@H](Cc2ccncc2)NC(=O)[C@H](CCCCN2CCOCC2)NC(=O)[C@H](CCC(=O)NC[C@H](O)[C@@H](O)[C@H](O)[C@H](O)CO)NC(=O)[C@H]([C@@H](C)CC)NC1=O [compound 13] ({CH2CO}-AV[NMePhe(3-Cl)]V[Trp(7-aza)]N[3Pal(6-NH2)]Y(CH2CO(D-glucamine))IIE(NH(1-deoxy-D-glucityl))[Nle(6-morpholino)][4Pal][NMeY]C[PEG4]-NH2; thioether N-15)	–	Kd (pH 7.4, single-cycle kinetics, read-out: hTfR SPR pH7.4 KD): 11.4 nM
CCC(CC)[C@@H]1NC(=O)[C@H](Cc2ccc(OCC(=O)O)cc2)NC(=O)[C@H](Cc2ccc(N)nc2)NC(=O)[C@H](CC(N)=O)NC(=O)[C@H](Cc2c[nH]c3ccccc23)NC(=O)[C@H](C(C)C)NC(=O)[C@H](Cc2cccc(Cl)c2)N(C)C(=O)[C@H](C(C)C)NC(=O)[C@H](C)NC(=O)CSC[C@@H](C(=O)NCCOCCOCCOCCOCCC(N)=O)NC(=O)[C@H](Cc2ccc(C(=O)O)cc2)N(C)C(=O)[C@H](Cc2cccc(C(=O)O)c2)NC(=O)[C@H](CCCNC(=N)N)NC(=O)[C@H](CCC(=O)NCCOCCOCCOCCOCCOCCOCCOCCOC)NC(=O)[C@H]([C@@H](C)CC)NC1=O [compound 85] ({CH2CO}-AV[NMePhe(3-Cl)]VWN[3Pal(6-NH2)]Y(Carboxymethyl)[Nva(3-Et)]IE(NH(CH2CH2O)8Me)R[Phe(3-COOH)][NMePhe(4-COOH)]C[PEG4]-NH2; thioether N-15)	–	Kd (SPR, pH 7.4, read-out: hTfR SPR pH7.4 KD): 234 nM
CCC(CC)[C@@H]1NC(=O)[C@H](Cc2ccc(OCC(=O)O)cc2)NC(=O)[C@H](Cc2ccc(O)cc2)NC(=O)[C@H](CC(N)=O)NC(=O)[C@H](Cc2cn(CC(=O)O)c3ccccc23)NC(=O)[C@H](C(C)C)NC(=O)[C@H](Cc2cccc(Cl)c2)N(C)C(=O)[C@H](C(C)C)NC(=O)[C@H](C)NC(=O)CSC[C@@H](C(=O)NCCOCCOCCOCCOCCC(N)=O)NC(=O)[C@H](Cc2cccnc2)N(C)C(=O)[C@H](Cc2cccc(C(=O)O)c2)NC(=O)[C@H](CCCNC(=N)N)NC(=O)[C@H](CCC(N)=O)NC(=O)[C@H]([C@@H](C)CC)NC1=O [compound 97] ({CH2CO}-AV[NMePhe(3-Cl)]V[Trp(1-CH2COOH)]NYY(Carboxymethyl)[Nva(3-Et)]IQR[Phe(3-COOH)][NMe3Pal]C[PEG4]-NH2; thioether N-15)	–	Kd [1]: 22.6 nM
CC[C@H](C)[C@@H]1NC(=O)[C@H](Cc2ccc(O)cc2)NC(=O)[C@H](Cc2ccc(O)cc2)NC(=O)[C@H](CC(N)=O)NC(=O)[C@H](Cc2c[nH]c3ccccc23)N(C)C(=O)[C@H](C(C)C)NC(=O)[C@H](Cc2ccccc2)N(C)C(=O)[C@H](C(C)C)NC(=O)[C@H](C)NC(=O)CSC[C@@H](C(=O)NCCOCCOCCOCCOCCC(N)=O)NC(=O)[C@H](Cc2ccc(C(=O)O)cc2)N(C)C(=O)[C@H](Cc2cccc(C(=O)NCCOCCOCCOCCOCCC(=O)O)c2)NC(=O)[C@H](CCCNC(=N)N)NC(=O)[C@H](CCCCN)NC(=O)[C@H]([C@@H](C)CC)NC1=O [compound 121] ({CH2CO}-AV[NMeF]V[NMeW]NYYIIKR[X1](PEG4)[NMePhe(4-COOH)]C[PEG4]-NH2; thioether N-15)	–	Kd [1]: 1.84 nM
CC[C@H](C)[C@@H]1NC(=O)[C@H](Cc2ccc(OCC(=O)N3CCN(CC(=O)O)CC3)cc2)NC(=O)[C@H](Cc2ccc(N)nc2)NC(=O)[C@H](CC(N)=O)NC(=O)[C@H](Cc2cn(CC(=O)O)c3ccccc23)NC(=O)[C@H](C(C)C)NC(=O)[C@H](Cc2cccc(Cl)c2)N(C)C(=O)[C@H](C(C)C)NC(=O)[C@H](C)NC(=O)CSC[C@@H](C(=O)NCCOCCOCCOCCOCCC(N)=O)NC(=O)[C@H](Cc2ccc(O)cc2)N(C)C(=O)[C@H](Cc2ccncc2)NC(=O)[C@H](CCCCN2CCOCC2)NC(=O)[C@H](CCC(=O)NCCOCCOCCOCCOCCOCCOCCOCCOC)NC(=O)[C@H]([C@@H](C)CC)NC1=O [compound 155] ({CH2CO}-AV[NMePhe(3-Cl)]V[Trp(1-CH2COOH)]N[3Pal(6-NH2)]Y(CH2CON(CH2CH2)2NCH2COOH)IIE(NH(CH2CH2O)8Me)[Nle(6-morpholino)][4Pal][NMeY]C[PEG4]-NH2; thioether N-15)	28.4 nM	–
